Columns and labels:
[1] = target: T1, Mouse urotensin (mUR2) (Mus musculus, UniProt Q8VIH9); assay: Radioligand binding, mouse urotensin mUR2 membranes, FlashPlate, [125I]-Urotensin II; details: compound at 10 μM; for A11: inhibition of radioligand binding, mouse urotensin (mUR2): [125I]-Urotensin II
T1 construct: purchased Perkin Elmer Biosignal
T1 sequence (Q8VIH9 1-385): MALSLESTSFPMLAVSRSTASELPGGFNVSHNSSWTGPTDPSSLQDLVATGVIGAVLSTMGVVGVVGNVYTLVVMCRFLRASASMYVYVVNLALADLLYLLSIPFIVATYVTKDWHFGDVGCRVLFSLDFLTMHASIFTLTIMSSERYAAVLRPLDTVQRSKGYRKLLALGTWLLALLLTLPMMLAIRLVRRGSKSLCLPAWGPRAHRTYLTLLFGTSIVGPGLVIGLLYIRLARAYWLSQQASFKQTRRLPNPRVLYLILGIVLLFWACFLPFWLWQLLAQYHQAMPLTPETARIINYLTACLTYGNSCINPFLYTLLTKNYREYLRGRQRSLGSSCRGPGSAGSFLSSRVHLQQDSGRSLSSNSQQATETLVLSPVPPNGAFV
Procedure, shortened: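 Cloned mouse urotensin (mUR2) receptor membranes from Perkin Elmer Biosignal were immobilized in FlashPlate microplates using a proprietary coating. Each well got 19.5 μl buffer, then 0.5 μl of DMSO, reference ligand, or compound. Adding 5 μl of [125I]-Urotensin II, diluted to 5× final concentration in binding buffer, started binding. Plates were sealed with TopSeal-A and incubated 1 hour at room temperature in the dark. Wells were counted for 30 seconds each on a TopCount after a 60-second delay, and percentage inhibition was calculated.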

[2] = target: T2, Human melanin-concentrating hormone (MCH1) (Homo sapiens, UniProt Q99705); assay: Radioligand binding, human melanin-concentrating hormone MCH1 membranes, FlashPlate, [125I]-S36057; details: compound at 10 μM; for A6: inhibition of radioligand binding, human melanin-concentrating hormone (MCH1): [125I]-S36057
T2 construct: purchased Perkin Elmer Biosignal
Procedure, shortened: (§1)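 Cloned human receptor membranes were coated onto FlashPlate wells and incubated with radioligand and compound (added from a 0.5 mM DMSO daughter plate) for 1 hour at room temperature in the dark. Scintillation counting gave percent inhibition, with DMSO defining total and reference ligand defining non-specific binding.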

[3] = target: T3, Human neuropeptide Y (NPY-Y1) (Homo sapiens, UniProt P25929); assay: Radioligand binding, human neuropeptide Y NPY-Y1 membranes, FlashPlate, [125I]-PYY; details: compound at 10 μM; for A9: inhibition of radioligand binding, human neuropeptide Y (NPY-Y1): [125I]-PYY
T3 construct: purchased Perkin Elmer Biosignal
T3 sequence (P25929 1-384): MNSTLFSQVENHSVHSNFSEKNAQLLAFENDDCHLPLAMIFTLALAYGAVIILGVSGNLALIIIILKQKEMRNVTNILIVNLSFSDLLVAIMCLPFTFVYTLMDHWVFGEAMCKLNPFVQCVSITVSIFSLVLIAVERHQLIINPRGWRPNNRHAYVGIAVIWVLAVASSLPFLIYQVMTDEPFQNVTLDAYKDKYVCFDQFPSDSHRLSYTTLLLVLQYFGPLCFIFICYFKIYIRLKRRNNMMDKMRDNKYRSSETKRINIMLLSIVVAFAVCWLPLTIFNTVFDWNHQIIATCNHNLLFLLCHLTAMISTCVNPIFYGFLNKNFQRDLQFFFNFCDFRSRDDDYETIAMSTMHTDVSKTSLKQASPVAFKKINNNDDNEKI
Procedure, shortened: as §1

[4] = target: T4, Human melanocortin (MC5) (Homo sapiens, UniProt P33032); assay: Radioligand binding, human melanocortin MC5 membranes, FlashPlate, [125I]-NDP-αMSH; details: compound at 10 μM; for A5: inhibition of radioligand binding, human melanocortin (MC5): [125I]-NDP-αMSH
T4 construct: purchased Perkin Elmer Biosignal
Procedure, shortened: as §1

[5] = target: T5, Human opioid (ORL1) (Homo sapiens, UniProt P41146); assay: Radioligand binding, human opioid ORL1 membranes, FlashPlate, [125I]-Nociceptin; details: compound at 10 μM; for A10: inhibition of radioligand binding, human opioid (ORL1): [125I]-Nociceptin
T5 construct: purchased Perkin Elmer Biosignal
Procedure, shortened: as §1

[6] = target: T6, Human Melanocortin (MC4) (Homo sapiens, UniProt P32245); assay: Radioligand binding, human melanocortin MC4 membranes, FlashPlate, [125I]-NDP-αMSH; details: compound at 10 μM; for A4: inhibition of radioligand binding, human melanocortin (MC4): [125I]-NDP-αMSH
T6 construct: purchased Perkin Elmer Biosignal
Procedure, shortened: as §1

[7] = target: T7, Human δ-opioid (DOP) (Homo sapiens, UniProt P41143); assay: Radioligand binding, human δ-opioid (DOP) membranes, FlashPlate, [3H]-Bremazocine; details: compound at 10 μM; for A1: inhibition of radioligand binding, human δ-opioid (DOP): [3H]-Bremazocine
T7 construct: purchased Perkin Elmer Biosignal
Procedure, shortened: as §1

[8] = target: T8, Human neurokinin (NK1) (Homo sapiens, UniProt P25103); assay: Radioligand binding, human neurokinin NK1 membranes, filtration, [125I]-Substance P; details: compound at 10 μM; for A8: inhibition of radioligand binding, human neurokinin (NK1): [125I]-Substance P
T8 construct: purchased Perkin Elmer Biosignal
Procedure, shortened: (§2)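 Membranes from cloned human receptors were incubated with compound and radioligand for 1 hour at room temperature. Bound ligand was collected on 0.3% PEI-soaked filters, washed with cold 50 mM Tris-HCl pH 7.4, and counted by scintillation. Percent inhibition was computed against DMSO totals and reference-ligand nonspecific wells.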

[9] = target: T9, Human κ-Opioid (KOP) (Homo sapiens, UniProt P41145); assay: Radioligand binding, human κ-opioid (KOP) membranes, filtration, [3H]-Diprenorphine; details: compound at 10 μM; for A2: inhibition of radioligand binding, human κ-opioid (KOP): [3H]-Diprenorphine
T9 construct: purchased Perkin Elmer Biosignal
Procedure, shortened: as §2

[10] = target: T10, Human μ-opioid (MOP) (Homo sapiens, UniProt P35372); assay: Radioligand binding, human μ-opioid (MOP) membranes, FlashPlate, [3H]-Naloxone; details: compound at 10 μM; for A7: inhibition of radioligand binding, human μ-opioid (MOP): [3H]-Naloxone
T10 construct: purchased Perkin Elmer Biosignal
Procedure, shortened: as §1

[11] = target: T11, Human Melanocortin (MC3) (Homo sapiens, UniProt P41968); assay: Radioligand binding, human melanocortin MC3 membranes, FlashPlate, [125I]-NDP-αMSH; details: compound at 10 μM; for A3: inhibition of radioligand binding, human melanocortin (MC3): [125I]-NDP-αMSH
T11 construct: purchased Perkin Elmer Biosignal
Procedure, shortened: as §1

T9 sequence (P41145 whole entry): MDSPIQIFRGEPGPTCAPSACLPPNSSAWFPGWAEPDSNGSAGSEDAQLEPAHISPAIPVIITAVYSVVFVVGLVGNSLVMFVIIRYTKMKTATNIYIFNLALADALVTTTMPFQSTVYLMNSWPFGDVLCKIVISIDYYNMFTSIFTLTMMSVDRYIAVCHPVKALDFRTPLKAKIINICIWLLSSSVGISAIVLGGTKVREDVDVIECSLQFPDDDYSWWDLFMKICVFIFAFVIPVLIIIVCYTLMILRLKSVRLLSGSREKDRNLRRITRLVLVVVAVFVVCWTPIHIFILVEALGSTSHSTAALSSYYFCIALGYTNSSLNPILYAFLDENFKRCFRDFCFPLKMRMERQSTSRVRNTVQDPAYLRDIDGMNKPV
T8 sequence (P25103 whole entry): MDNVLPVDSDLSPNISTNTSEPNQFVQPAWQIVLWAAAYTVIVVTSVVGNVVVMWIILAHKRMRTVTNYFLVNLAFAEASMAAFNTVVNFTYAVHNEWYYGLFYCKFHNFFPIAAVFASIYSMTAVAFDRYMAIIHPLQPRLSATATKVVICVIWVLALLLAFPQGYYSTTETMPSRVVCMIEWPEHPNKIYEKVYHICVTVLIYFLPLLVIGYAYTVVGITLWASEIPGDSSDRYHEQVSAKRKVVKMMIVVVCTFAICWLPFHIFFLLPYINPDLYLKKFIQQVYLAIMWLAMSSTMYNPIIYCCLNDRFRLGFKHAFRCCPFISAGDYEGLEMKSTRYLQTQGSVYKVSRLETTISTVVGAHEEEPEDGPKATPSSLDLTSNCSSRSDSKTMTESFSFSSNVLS
T4 sequence (P33032 whole entry): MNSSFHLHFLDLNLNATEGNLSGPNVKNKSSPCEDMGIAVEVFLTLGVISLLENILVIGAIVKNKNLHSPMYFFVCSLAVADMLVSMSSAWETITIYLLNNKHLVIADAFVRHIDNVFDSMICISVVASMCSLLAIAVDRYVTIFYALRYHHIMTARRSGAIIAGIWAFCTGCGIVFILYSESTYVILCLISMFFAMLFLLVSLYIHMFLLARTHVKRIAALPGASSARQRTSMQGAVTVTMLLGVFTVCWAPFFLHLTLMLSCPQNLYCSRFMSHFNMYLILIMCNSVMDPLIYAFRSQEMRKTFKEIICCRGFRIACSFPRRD
T6 sequence (P32245 whole entry): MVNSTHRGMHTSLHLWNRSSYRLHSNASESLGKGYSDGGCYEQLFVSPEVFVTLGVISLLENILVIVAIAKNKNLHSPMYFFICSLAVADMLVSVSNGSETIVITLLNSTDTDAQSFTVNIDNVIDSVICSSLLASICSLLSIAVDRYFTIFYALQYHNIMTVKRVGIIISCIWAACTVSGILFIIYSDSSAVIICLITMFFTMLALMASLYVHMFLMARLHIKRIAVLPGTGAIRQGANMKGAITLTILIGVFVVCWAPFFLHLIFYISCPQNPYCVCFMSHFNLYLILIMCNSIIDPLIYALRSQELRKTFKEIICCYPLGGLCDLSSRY
T10 sequence (P35372 whole entry): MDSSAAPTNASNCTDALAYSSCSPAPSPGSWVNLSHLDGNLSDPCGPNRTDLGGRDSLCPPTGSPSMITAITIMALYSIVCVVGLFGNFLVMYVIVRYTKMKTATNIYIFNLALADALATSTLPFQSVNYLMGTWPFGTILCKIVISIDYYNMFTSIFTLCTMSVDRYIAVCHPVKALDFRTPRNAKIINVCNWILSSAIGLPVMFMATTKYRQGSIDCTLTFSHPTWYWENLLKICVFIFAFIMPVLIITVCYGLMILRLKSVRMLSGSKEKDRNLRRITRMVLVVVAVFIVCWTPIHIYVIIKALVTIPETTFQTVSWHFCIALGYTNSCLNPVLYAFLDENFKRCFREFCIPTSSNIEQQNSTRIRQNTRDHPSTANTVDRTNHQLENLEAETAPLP
T7 sequence (P41143 whole entry): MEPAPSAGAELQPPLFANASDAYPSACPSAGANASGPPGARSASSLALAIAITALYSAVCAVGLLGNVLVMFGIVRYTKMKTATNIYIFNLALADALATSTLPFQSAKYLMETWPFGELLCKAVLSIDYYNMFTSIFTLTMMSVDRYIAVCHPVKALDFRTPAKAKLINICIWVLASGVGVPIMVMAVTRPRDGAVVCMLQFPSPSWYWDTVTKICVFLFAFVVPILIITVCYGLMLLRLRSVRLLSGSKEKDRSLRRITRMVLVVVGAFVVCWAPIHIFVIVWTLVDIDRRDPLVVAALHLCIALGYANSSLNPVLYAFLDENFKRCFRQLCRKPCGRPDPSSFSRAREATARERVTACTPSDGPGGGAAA
T11 sequence (P41968 whole entry): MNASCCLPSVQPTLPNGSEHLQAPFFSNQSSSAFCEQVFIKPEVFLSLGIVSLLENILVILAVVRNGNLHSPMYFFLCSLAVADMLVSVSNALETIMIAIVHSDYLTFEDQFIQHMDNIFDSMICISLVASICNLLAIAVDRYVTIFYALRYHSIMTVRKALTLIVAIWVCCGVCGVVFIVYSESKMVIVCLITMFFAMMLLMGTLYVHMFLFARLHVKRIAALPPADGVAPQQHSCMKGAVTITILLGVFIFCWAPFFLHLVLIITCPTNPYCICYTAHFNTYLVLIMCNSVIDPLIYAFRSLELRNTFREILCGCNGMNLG
T2 sequence (Q99705 whole entry): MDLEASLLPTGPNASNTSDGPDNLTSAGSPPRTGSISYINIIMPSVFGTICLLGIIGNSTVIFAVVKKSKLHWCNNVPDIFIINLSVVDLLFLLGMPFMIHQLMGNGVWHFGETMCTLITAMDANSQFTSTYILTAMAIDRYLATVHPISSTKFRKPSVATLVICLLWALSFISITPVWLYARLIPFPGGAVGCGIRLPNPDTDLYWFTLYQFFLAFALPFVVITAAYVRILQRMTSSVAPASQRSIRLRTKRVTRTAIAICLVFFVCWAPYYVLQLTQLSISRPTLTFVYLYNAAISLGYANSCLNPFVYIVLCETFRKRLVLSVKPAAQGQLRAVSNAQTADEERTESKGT
T5 sequence (P41146 whole entry): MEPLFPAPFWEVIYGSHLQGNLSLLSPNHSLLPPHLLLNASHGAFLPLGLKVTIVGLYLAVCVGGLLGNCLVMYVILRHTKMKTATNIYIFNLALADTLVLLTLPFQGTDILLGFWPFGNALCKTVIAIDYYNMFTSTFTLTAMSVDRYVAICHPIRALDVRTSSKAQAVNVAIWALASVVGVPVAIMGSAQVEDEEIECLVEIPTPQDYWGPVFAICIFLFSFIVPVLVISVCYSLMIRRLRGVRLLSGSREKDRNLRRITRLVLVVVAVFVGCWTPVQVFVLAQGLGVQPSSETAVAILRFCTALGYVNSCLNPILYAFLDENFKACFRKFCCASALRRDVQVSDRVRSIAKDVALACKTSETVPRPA

Row | SMILES | A11: inhibition of radioligand binding, mouse urotensin (mUR2) [1] | A6: inhibition of radioligand binding, human melanin-concentrating hormone (MCH1) [2] | A9: inhibition of radioligand binding, human neuropeptide Y (NPY-Y1) [3] | A5: inhibition of radioligand binding, human melanocortin (MC5) [4] | A10: inhibition of radioligand binding, human opioid (ORL1) [5] | A4: inhibition of radioligand binding, human melanocortin (MC4) [6] | A1: inhibition of radioligand binding, human δ-opioid (DOP) [7] | A8: inhibition of radioligand binding, human neurokinin (NK1) [8] | A2: inhibition of radioligand binding, human κ-opioid (KOP) [9] | A7: inhibition of radioligand binding, human μ-opioid (MOP) [10] | A3: inhibition of radioligand binding, human melanocortin (MC3) [11] | other results
1 | COC[C@H]1OC(OCc2ccc(Cl)cc2)[C@H](NC(=O)CCCNC(=N)N)[C@@H](OCc2ccc3ccccc3c2)[C@@H]1O (stereo partly drawn) [compound 33] |  |  |  |  |  |  |  |  |  |  |  | A11 radioligand binding inhibition ([1]; mouse urotensin mUR2 membranes): − (“−” indicates less than 50% inhibition at 10 μM); A6 radioligand binding inhibition ([2]; human MCH1 membranes): + (“+” indicates greater than 50% inhibition at 10 μM); A9 radioligand binding inhibition ([3]; human NPY-Y1 membranes): − (“−” indicates less than 50% inhibition at 10 μM); A5 radioligand binding inhibition ([4]; human melanocortin MC5 membranes): − (“−” indicates less than 50% inhibition at 10 μM); A10 radioligand binding inhibition ([5]; human ORL1 membranes): − (“−” indicates less than 50% inhibition at 10 μM); A4 radioligand binding inhibition ([6]; human melanocortin MC4 membranes): − (“−” indicates less than 50% inhibition at 10 μM); A1 radioligand binding inhibition ([7]; human δ-opioid (DOP) membranes): − (“−” indicates less than 50% inhibition at 10 μM); A8 radioligand binding inhibition ([8]; human neurokinin NK1 membranes): + (“+” indicates greater than 50% inhibition at 10 μM); A2 radioligand binding inhibition ([9]; human κ-opioid (KOP) membranes): − (“−” indicates less than 50% inhibition at 10 μM); A7 radioligand binding inhibition ([10]; human μ-opioid (MOP) membranes): − (“−” indicates less than 50% inhibition at 10 μM); A3 radioligand binding inhibition ([11]; human melanocortin MC3 membranes): − (“−” indicates less than 50% inhibition at 10 μM)
2 | NCCCC(=O)NC1C(OCc2ccccc2)OC(COCc2ccc(Cl)cc2)C(O)C1OCc1ccc(Cl)cc1 (stereo not drawn) [compound 374] | − (“−” indicates less than 50% inhibition at 10 μM) | − (“−” indicates less than 50% inhibition at 10 μM) | − (“−” indicates less than 50% inhibition at 10 μM) | + (“+” indicates greater than 50% inhibition at 10 μM) | − (“−” indicates less than 50% inhibition at 10 μM) | + (“+” indicates greater than 50% inhibition at 10 μM) | − (“−” indicates less than 50% inhibition at 10 μM) | + (“+” indicates greater than 50% inhibition at 10 μM) | − (“−” indicates less than 50% inhibition at 10 μM) | − (“−” indicates less than 50% inhibition at 10 μM) | − (“−” indicates less than 50% inhibition at 10 μM) | 
3 | CSC1O[C@H](COCc2ccccc2)[C@@H](O)[C@@H](OCc2ccc(-c3ccccc3)cc2)[C@H]1NC(=O)CCCNC(=N)N (stereo partly drawn) [compound 287] | − (“−” indicates less than 50% inhibition at 10 μM) | − (“−” indicates less than 50% inhibition at 10 μM) | − (“−” indicates less than 50% inhibition at 10 μM) | − (“−” indicates less than 50% inhibition at 10 μM) | − (“−” indicates less than 50% inhibition at 10 μM) | − (“−” indicates less than 50% inhibition at 10 μM) | − (“−” indicates less than 50% inhibition at 10 μM) | + (“+” indicates greater than 50% inhibition at 10 μM) | − (“−” indicates less than 50% inhibition at 10 μM) | − (“−” indicates less than 50% inhibition at 10 μM) | − (“−” indicates less than 50% inhibition at 10 μM) | 

Source: patent US20080009418A1, “Selective Inhibitors” (Alchemia LTD., priority 2004, published 2008)
